Laboratory results as given in US11464854B2, “Methods and compositions relating to adjuvants” (Children's Medical Center Corporation, priority 2017, dated 2022).

Assays:
[1] = test system: cytokine and IFN-inducible gene expression in draining lymph nodes and spleen; format: in vivo, mice; conditions: mice
[2] = test system: FHA (B. pertussis filamentous hemagglutinin); assay: Adult mouse immunization with Infanrix (DTaP), anti-FHA serum antibody titers; format: in vivo, Balb/c mice; conditions: 14 days post primary and secondary
Method: For immunization experiments, both neonate and adult mice were immunized intramuscularly (i.m.) in the posterior thigh with 50 μl of total vaccine dose. For adult mouse studies, Balb/c mice (6-8 weeks of age) were immunized with Infanrix (GSK, 1/100th of the human dose)±CRX649 or CRX-727 at 0.1 μg, 1 μg or 10 μg per mouse in different formulations (aqueous choline salt, liposome or alum pre-adsorbed). Serum was harvested 14 days following prime (14dp1) or boost (14dp2) and anti-FHA serum antibody IgG1 and IgG2a titers were measured by ELISA, as described below. For neonatal mouse studies, 7 day old Balb/c and C57BL/6 mice were immunized with a prime-boost schedule (two injections one week apart, for newborn mice at DOL 7 and 14). Serum was harvested 14 days following boost (14dp2) (day of life 28) and anti-FHA serum total IgG titers, IgG1 and IgG2a/IgG2c were measured by ELISA.
For anti-filamentous hemagglutinin (FHA) ELISAs, Nunc MaxiSorp™ flat bottom 96-well plates (ThermoFisher Scientific) were coated with 5 μg/ml FHA (B. pertussis Filamentous Hemagglutinin, Strain: NCTC 10739, The Native Antigen Company/Cedarlane, Burlington, N.C.) in carbonate buffer pH 9.6, incubated overnight at 4° C., washed 3× with wash buffer (KPL 10× Phosphate Buffered Saline with Tween 20 (Fisher Scientific)) and blocked with Superblock™ (ScyTek) for 1 h at room temperature (RT). […]

human TLR7 = target: T1, human TLR7 (Homo sapiens, UniProt Q9NYK1); assay: HEK293 NF-kB SEAP reporter assay, human TLR7; format: cell-based; conditions: among six IMQ and OA compounds, SEAP fold change
T1 construct: host or cells: HEK293 with NF-kB-responsive SEAP reporter
T1 sequence (Q9NYK1 27-1049): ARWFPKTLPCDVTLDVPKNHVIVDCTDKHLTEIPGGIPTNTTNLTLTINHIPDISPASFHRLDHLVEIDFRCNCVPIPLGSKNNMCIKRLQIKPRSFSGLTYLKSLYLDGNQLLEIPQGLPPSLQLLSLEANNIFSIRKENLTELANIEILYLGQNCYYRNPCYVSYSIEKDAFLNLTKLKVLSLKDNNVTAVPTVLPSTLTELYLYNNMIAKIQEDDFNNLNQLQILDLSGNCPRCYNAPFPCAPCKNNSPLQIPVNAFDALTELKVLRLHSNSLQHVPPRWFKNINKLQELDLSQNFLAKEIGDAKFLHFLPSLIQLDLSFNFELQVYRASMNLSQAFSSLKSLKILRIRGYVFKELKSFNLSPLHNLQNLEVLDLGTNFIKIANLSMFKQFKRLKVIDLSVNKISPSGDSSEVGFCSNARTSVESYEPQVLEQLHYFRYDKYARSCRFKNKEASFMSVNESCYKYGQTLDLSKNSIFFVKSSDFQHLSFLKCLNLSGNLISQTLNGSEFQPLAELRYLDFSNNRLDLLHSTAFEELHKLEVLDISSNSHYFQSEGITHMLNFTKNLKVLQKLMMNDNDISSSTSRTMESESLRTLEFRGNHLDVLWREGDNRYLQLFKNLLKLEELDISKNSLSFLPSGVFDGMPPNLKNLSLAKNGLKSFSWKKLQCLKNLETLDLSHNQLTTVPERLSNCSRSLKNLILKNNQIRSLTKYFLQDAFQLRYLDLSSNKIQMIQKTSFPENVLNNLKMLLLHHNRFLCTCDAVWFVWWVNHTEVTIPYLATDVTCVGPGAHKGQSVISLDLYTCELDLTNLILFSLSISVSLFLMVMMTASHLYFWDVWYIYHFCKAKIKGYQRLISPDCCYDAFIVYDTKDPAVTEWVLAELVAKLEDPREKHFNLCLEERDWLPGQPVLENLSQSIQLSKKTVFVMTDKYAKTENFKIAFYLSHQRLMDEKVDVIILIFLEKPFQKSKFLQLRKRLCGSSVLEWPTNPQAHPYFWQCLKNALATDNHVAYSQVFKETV
Method: Human embryonic kidney (HEK)293 cells expressing human TLR7 or TLR8 with an NF-κB-responsive secreted embryonic alkaline phosphatase (SEAP) reporter gene were obtained from Novus Biologicals (Littleton, Colo.) and Invivogen (San Diego, Calif.), respectively. Cells were maintained in DMEM with 10% HI-FBS and selection antibiotics per the manufacturer's instructions. Cells were plated at 5×10^5 cells/96-well and stimulated with indicated agonist(s) for 24 h. Supernatants were harvested and analyzed for NF-κB/SEAP activation using the QuantiBlue™ kit (Invivogen). Values are expressed as fold change in OD650 over vehicle-only treated samples.

| SMILES | IFN-related and TLR7 gene expression in the spleens ([1]; SC administration) | cytokine mRNA expression ([1]; SC administration) | time of peak cytokine mRNA expression ([1]; single SC dose, lymph node tissue and splenocytes) [h] | anti-FHA IgG1 or IgG2a antibody titers [2] | potency for hTLR7 (human TLR7) |
| --- | --- | --- | --- | --- | --- |
| CCCCCCCCCCCCCCCCCC(=O)NCCCCOn1c(CCCC)nc2c(N)nc3ccccc3c21 [3M-052, N-[4-[(4-amino-2-butyl-1H-imidazo[4,5-c]quinolin-1-yl)oxy]butyl]octadecanamide] | robust | little if any | 6 |  |  |
| CCCCc1nc2c(N)nc3ccccc3c2n1CCO [CRX-649] |  |  |  | not able to enhance | greatest potency |
